The source of these data is ChEMBL document CHEMBL1201862, “PubChem BioAssay data set” (2004).

SMILES strings stand for the structures.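 Method: 48-hour compound exposure of cells in 96-well plates, five concentrations, linear interpolation of endpoints. At the GI50, growth is halved.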 Calls of active or inactive are those of the source. Rule as the data show it: active = GI50 up to about 1.1 µM and inactive = higher.

Among the test systems are 786-0; ACHN; CAKI-1; EKVX; HCT-116; HCT-15; Hs-578T; IGROV-1; KM12; M14; MCF7; MDA-MB-231; MDA-N; Malme-3M; NCI/ADR-RES; PC-3; SF-539; TK-10; U-251; UO-31.
Holding throughout (experiment): inhibition of tumour cell growth, NCI panel, 48 h

`Nc1cc(S(N)(=O)=O)ccc1SSc1ccc(S(N)(=O)=O)cc1N`: the GI50 with 786-0 is > 100 µM (inactive); in the assay with ACHN, > 62.5 µM (inactive); with CAKI-1, > 100 µM (inactive); in the assay with EKVX it was > 100 µM (inactive); with HCT-116 it was > 100 µM (inactive); with HCT-15 it was over 100 µM. In addition, the GI50 in the assay with Hs-578T, with IGROV-1, with KM12, with M14, with MCF7 and in the assay on MDA-MB-231 was > 100 µM (inactive) each time. The GI50 with MDA-N, with Malme-3M, with NCI/ADR-RES, in the assay with PC-3, in the assay with SF-539 and in the assay with TK-10 was > 100 µM (inactive) throughout. Besides, the GI50 with U-251 and with UO-31 was > 100 µM (inactive) in each case.
On to `COc1cccc(C2CC(C)(O)Oc3cc4c(cc32)OCO4)c1O` (stereo not given), for which the GI50 is 24.8 µM (inactive) in the assay on 786-0; 31.8 µM (inactive) with ACHN; 39.4 µM (inactive) in the assay with CAKI-1; 34.6 µM (inactive) with EKVX; 10.7 µM (inactive) with HCT-116; 21.7 µM in the assay with HCT-15. In addition, the GI50 in the assay on Hs-578T was 15.4 µM (inactive); with IGROV-1, 27.9 µM (inactive); in the assay with KM12, 12.5 µM (inactive); in the assay on M14, 13.5 µM (inactive); in the assay with MCF7 it was 11.4 µM (inactive); in the assay on MDA-MB-231 it was 18 µM (inactive). For the same molecule, the GI50 in the assay with MDA-N is 2.72 µM (inactive); in the assay on Malme-3M, 29.2 µM (inactive); in the assay with NCI/ADR-RES it was 19.7 µM (inactive); with PC-3, 27.2 µM (inactive); in the assay on SF-539, 17.4 µM (inactive); in the assay with TK-10, 39.7 µM (inactive). In addition, the GI50 in the assay on U-251 was 24.2 µM (inactive); in the assay with UO-31 it was 35.6 µM (inactive).
Consider `Fc1nc(-c2c3ccccc3c3sc4ccccc4n23)nc(N2CCOCCOCCOCCOCC2)n1`, for which the GI50 is 32.8 µM (inactive) with 786-0; > 100 µM (inactive) in the assay with ACHN; > 100 µM (inactive) with CAKI-1; > 100 µM (inactive) in the assay on EKVX; 62.4 µM (inactive) in the assay on HCT-116; over 100 µM in the assay with HCT-15. Moreover, the GI50 in the assay on Hs-578T was 37.3 µM (inactive); in the assay on IGROV-1, > 100 µM (inactive); in the assay with KM12 it was > 100 µM (inactive); in the assay with M14, > 100 µM (inactive); with MCF7, > 100 µM (inactive); with MDA-MB-231 it was 86.9 µM (inactive). The GI50 was > 100 µM (inactive) with MDA-N; > 100 µM (inactive) in the assay with Malme-3M; 56.8 µM (inactive) in the assay on NCI/ADR-RES; > 100 µM (inactive) in the assay on PC-3; 21.6 µM (inactive) in the assay with SF-539; 54.2 µM (inactive) with TK-10. The GI50 in the assay on U-251 is 44.8 µM (inactive); in the assay on UO-31, > 100 µM (inactive).
For the molecule `CN(C)CCNC1=CC(=O)c2nc3ccccc3c3ccnc1c23`, the GI50 in the assay on 786-0 is 2.81 µM (inactive); with ACHN, 3.05 µM (inactive); in the assay with CAKI-1, 4.02 µM (inactive); with EKVX, 2.94 µM (inactive); in the assay on HCT-116, 2.88 µM (inactive); in the assay with HCT-15, 3.23 µM. The GI50 in the assay on Hs-578T was 4.95 µM (inactive); in the assay with IGROV-1, 2.47 µM (inactive); in the assay on KM12 it was 3.34 µM (inactive); in the assay with M14, 7.6 µM (inactive); with MCF7, 3.75 µM (inactive); with MDA-MB-231, 3.63 µM (inactive). For the same molecule, the GI50 in the assay with MDA-N is 7.78 µM (inactive); with Malme-3M it was 3 µM (inactive); in the assay on NCI/ADR-RES, 4.13 µM (inactive); in the assay on PC-3 it was 3.36 µM (inactive); in the assay with SF-539, 3.98 µM (inactive); with TK-10 it was 8.2 µM (inactive). Further, the GI50 is 8.26 µM (inactive) with U-251 and 3.89 µM (inactive) in the assay with UO-31.
Take `NCCSS(=O)(=O)CCN`: the GI50 in the assay on 786-0 is > 100 µM (inactive); with ACHN, > 100 µM (inactive); with CAKI-1 it was > 100 µM (inactive); in the assay with EKVX, > 100 µM (inactive); in the assay with HCT-116 it was > 100 µM (inactive); in the assay with HCT-15, over 100 µM. Besides, the GI50 in the assay with Hs-578T, in the assay with IGROV-1, in the assay on KM12, in the assay on M14, with MCF7 and with MDA-MB-231 was > 100 µM (inactive) in each case. Also, the GI50 in the assay with MDA-N, in the assay with Malme-3M, with NCI/ADR-RES, with PC-3, with SF-539 and with TK-10 was > 100 µM (inactive) in each case. Besides, the GI50 in the assay on U-251 and with UO-31 was > 100 µM (inactive) each time.
For the molecule `Oc1ccc(/C=C\c2nnc(/C=C\c3ccc(O)c(O)c3)s2)cc1O`, the GI50 in the assay on 786-0 was 5.97 µM (inactive); in the assay with ACHN, 3.69 µM (inactive); in the assay with CAKI-1, 5.14 µM (inactive); in the assay on EKVX, 16.6 µM (inactive); in the assay with HCT-116, 3.26 µM (inactive); in the assay with HCT-15, 3.85 µM. Besides, the GI50 was 3.73 µM (inactive) in the assay with Hs-578T; 4.09 µM (inactive) in the assay with IGROV-1; 5.45 µM (inactive) with KM12; 6.1 µM (inactive) with M14; 3 µM (inactive) in the assay with MCF7; 20 µM (inactive) in the assay with MDA-MB-231. The GI50 with MDA-N is 4.68 µM (inactive); in the assay on Malme-3M, 2.03 µM (inactive); in the assay on NCI/ADR-RES, 7.67 µM (inactive); with PC-3, 8.97 µM (inactive); in the assay on SF-539 it was 3.36 µM (inactive); with TK-10 it was 6.53 µM (inactive). Also, the GI50 is 4.07 µM (inactive) in the assay on U-251 and 3.38 µM (inactive) in the assay on UO-31.
In the case of `CC(C)/C(Cl)=N\OC(=O)Nc1ccccc1F`, the GI50 in the assay with 786-0 was 16.4 µM (inactive); in the assay on ACHN it was 12.4 µM (inactive); with CAKI-1, 21.3 µM (inactive); with EKVX, 16.9 µM (inactive); with HCT-116, 8.45 µM (inactive); in the assay with HCT-15, 16.2 µM. The GI50 in the assay with Hs-578T is 25.9 µM (inactive); with IGROV-1 it was 17.7 µM (inactive); in the assay on KM12, 20.8 µM (inactive); in the assay on M14, 5.73 µM (inactive); with MCF7, 5.64 µM (inactive); with MDA-MB-231 it was 8.81 µM (inactive). The GI50 with MDA-N was 16.6 µM (inactive); in the assay on Malme-3M, 3.94 µM (inactive); in the assay with NCI/ADR-RES, 15.2 µM (inactive); in the assay on PC-3, 17.2 µM (inactive); with SF-539, 17.3 µM (inactive); in the assay on TK-10 it was 14.5 µM (inactive). Besides, the GI50 in the assay with U-251 is 17.3 µM (inactive); in the assay with UO-31 it was 16.1 µM (inactive).
Regarding `O=C(CC(O)(C(F)(F)F)C(F)(F)Cl)CC(O)(C(F)(F)F)C(F)(F)Cl` (stereo not given), the GI50 in the assay with 786-0 is 3.47 µM (inactive); in the assay with ACHN, 1.77 µM (inactive); in the assay on CAKI-1 it was 2.74 µM (inactive); in the assay on EKVX it was 2.37 µM (inactive); with HCT-116, 1.67 µM (inactive); in the assay with HCT-15, 1.79 µM. For the same molecule, the GI50 in the assay with Hs-578T is 2.07 µM (inactive); in the assay with IGROV-1 it was 2.47 µM (inactive); in the assay on KM12 it was 3.09 µM (inactive); in the assay with M14 it was 3.65 µM (inactive); in the assay with MCF7 it was 2.79 µM (inactive); with MDA-MB-231, 2.05 µM (inactive). Besides, the GI50 in the assay on MDA-N was 3.21 µM (inactive); in the assay with Malme-3M, 1.14 µM (inactive); with NCI/ADR-RES it was 2.58 µM (inactive); with PC-3 it was 1.64 µM (inactive); in the assay with SF-539 it was 1.34 µM (inactive); in the assay on TK-10, 3.08 µM (inactive). The figures for the GI50 in the assay with U-251 and in the assay with UO-31 were 1.88 µM (inactive) and 1.44 µM (inactive), respectively.
Consider `Cc1ncc(CSC(=N)N)n1Cc1ccccc1`, for which the GI50 with 786-0 is 46 µM (inactive); in the assay with ACHN, > 100 µM (inactive); in the assay on CAKI-1 it was 84.1 µM (inactive); in the assay with EKVX it was 96.8 µM (inactive); in the assay with HCT-116 it was 42.2 µM (inactive); in the assay on HCT-15 it was over 100 µM. Moreover, the GI50 in the assay with Hs-578T was 95.7 µM (inactive); with IGROV-1, > 100 µM (inactive); in the assay on KM12, > 100 µM (inactive); in the assay with M14 it was 48.1 µM (inactive); in the assay on MCF7, 39.5 µM (inactive); in the assay with MDA-MB-231, > 100 µM (inactive). In addition, the GI50 was 38.2 µM (inactive) in the assay on MDA-N; 54.5 µM (inactive) with Malme-3M; > 100 µM (inactive) in the assay with NCI/ADR-RES; > 100 µM (inactive) in the assay on PC-3; 43.6 µM (inactive) with SF-539; 25.8 µM (inactive) in the assay on TK-10. Moreover, the GI50 in the assay with U-251 and with UO-31 was > 100 µM (inactive) in each case.
As to `CCc1c(Cl)nc(Cl)nc1Cl`, the GI50 was 0.122 µM (active) in the assay on 786-0; 0.076 µM (active) in the assay on ACHN; 0.0484 µM (active) with CAKI-1; 0.519 µM (active) in the assay with EKVX; 0.0885 µM (active) in the assay on HCT-116; 0.0348 µM in the assay on HCT-15. The GI50 with Hs-578T was 1.13 µM (inactive); in the assay with IGROV-1 it was 0.542 µM (active); in the assay with KM12 it was 1.08 µM (active); in the assay on M14, 0.0438 µM (active); with MCF7, 0.0578 µM (active); in the assay on MDA-MB-231, 0.346 µM (active). Moreover, the GI50 was 0.259 µM (active) in the assay with MDA-N; 0.0509 µM (active) in the assay on Malme-3M; 0.382 µM (active) in the assay with NCI/ADR-RES; 0.698 µM (active) in the assay with PC-3; 0.372 µM (active) in the assay with SF-539; 1.58 µM (inactive) with TK-10. The values for the GI50 in the assay on U-251 and in the assay with UO-31 were 0.331 µM (active) and 1.38 µM (inactive), respectively.
